In US8916599B2, “1H-benz imidazole-5-carboxamides as anti-inflammatory agents” (Orexo AB, priority 2008, dated 2014):

Target: T1, recombinant human mPGES-1 (Homo sapiens, UniProt O14684)
T1 construct: made in house; host or cells: Rosetta E. coli (microsomal/membrane fraction)
T1 sequence (O14684 1-152): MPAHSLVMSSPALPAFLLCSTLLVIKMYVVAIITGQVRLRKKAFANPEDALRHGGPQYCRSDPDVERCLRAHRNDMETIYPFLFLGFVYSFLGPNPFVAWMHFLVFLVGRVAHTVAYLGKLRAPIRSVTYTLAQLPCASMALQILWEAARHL
Experiment: mPGES-1 inhibition test (microsomes, PGH2 substrate, HTRF detection of PGE2)
Type: biochemical
Conditions: inhibition of mPGES-1 at 1 μM (marked in cell)
Experimental: Microsomes from Rosetta E. coli bacteria expressing recombinant human mPGES-1 is dissolved in 0.1 M KPi pH 7.4 buffer containing 2.5 mM GSH. 50 μl of the enzyme is subsequently dispensed in a 384-well plate. 0.5 μl of the inhibitor dissolved in DMSO at is thereafter added to each well and incubated for 25 minutes at room temperature. Subsequently, 2 μl of PGH2 dissolved in an appropriate solvent is added to each well and after one minute the acidified stop solution containing FeCl2 is added. 4 μl of the total volume is transferred to a separate plate and diluted 750-fold in two separate steps before HTRF detection of PGE2.
The HTRf detection is performed by the use of a commercially available kit from CisBio essentially according to the manufacturer's protocol. Briefly, 10 μl of the diluted sample is transferred to a white 384-well plate. 5 μl of d2 and 5 μl Eu3+-Cryptate labeled anti-PGE2 is added to each well containing samples by the use of a Multidrop. The plate is covered with a plastic self-adhesive film, centrifuged at 1200 rpm for 1 minute and subsequently stored at +4° C. over night.
After over night incubation the fluorescence is measured by the use of an appropriate microplate reader. The fluorescence of europium cryptate, and d2 are measured using the following excitation and emission wavelength, europium cryptate: λmax^ex=307 nm, λmax^em=620 nm and d2: λmax^ex=620 nm, λmax^em=665 nm), respectively. The extent of the specific FRET is measured as a ratio of the emission intensity at 665 nm vs. that at 620 nm. A standard curve using synthetic PGE2 is used to quantify the amount of PGE2 in unknown samples.

Compound	inhibition at 1 µM [%]
O=C(Nc1ccc(Cl)c(F)c1)c1ccc2[nH]c(Nc3c(Cl)cccc3Cl)nc2c1 [Example 67, 2-(2,6-Dichloro-phenylamino)-1H-benzimidazole-5-carboxylic acid (4-chloro-3-fluoro-phenyl)-amide]	100
O=C(Nc1ccc(Br)c(F)c1)c1ccc2[nH]c(Nc3c(Cl)cccc3Cl)nc2c1 [Example 68, 2-(2,6-Dichloro-phenylamino)-1H-benzimidazole-5-carboxylic acid (4-bromo-3-fluoro-phenyl)-amide]	100
O=C(Nc1cccc(Br)c1)c1ccc2[nH]c(Nc3c(Cl)cccc3Cl)nc2c1 [Example 69, 2-(2,6-Dichloro-phenylamino)-1H-benzimidazole-5-carboxylic acid (3-bromo-phenyl)-amide]	100
O=C(Nc1ccc(F)c(Br)c1)c1ccc2[nH]c(Nc3c(Cl)cccc3Cl)nc2c1 [Example 70, 2-(2,6-Dichloro-phenylamino)-1H-benzimidazole-5-carboxylic acid (3-bromo-4-fluoro-phenyl)-amide]	100
O=C(Nc1ccc(F)c(Cl)c1)c1ccc2[nH]c(Nc3c(Cl)cccc3Cl)nc2c1 [Example 71, 2-(2,6-Dichloro-phenylamino)-1H-benzimidazole-5-carboxylic acid (3-chloro-4-fluoro-phenyl)-amide]	95

Same assay, conditions: inhibition of mPGES-1 at 10 μM

Compound	% inhib. [%]	inhibition at 10 µM [%]
2-(2-Chloro-6-fluorophenylamino-N-(4-isopropylcyclohexyl)-6-fluoro-1-methyl-1H-benzimidazole-5-carboxamide [Example 363]	100	–
O=C(Nc1ccccc1)c1ccc2[nH]c(Nc3c(Cl)cccc3Cl)nc2c1 [Example 1, 2-(2,6-Dichloro-phenylamino)-1H-benzimidazole-5-carboxylic acid phenylamide]	–	100
Cc1ccccc1NC(=O)c1ccc2[nH]c(Nc3c(Cl)cccc3Cl)nc2c1 [Example 3, 2-(2,6-Dichloro-phenylamino)-1H-benzimidazole-5-carboxylic acid o-tolylamide]	–	95
Cc1cccc(NC(=O)c2ccc3[nH]c(Nc4c(Cl)cccc4Cl)nc3c2)c1 [Example 4, 2-(2,6-Dichloro-phenylamino)-1H-benzimidazole-5-carboxylic acid m-tolylamide]	–	100
Cc1ccc(NC(=O)c2ccc3[nH]c(Nc4c(Cl)cccc4Cl)nc3c2)cc1 [Example 5, 2-(2,6-Dichloro-phenylamino)-1H-benzimidazole-5-carboxylic acid p-tolylamide]	–	100
O=C(Nc1ccccc1)c1ccc2[nH]c(Nc3ccccc3C(F)(F)F)nc2c1 [Example 6, 2-(2-Trifluoromethyl-phenylamino)-1H-benzimidazole-5-carboxylic acid-phenylamide]	–	99
O=C(Nc1ccccc1)c1ccc2[nH]c(Nc3cc(Cl)ccc3Cl)nc2c1 [Example 7, 2-(2,5-Dichloro-phenylamino)-1H-benzimidazole-5-carboxylic acid-phenylamide]	–	100
O=C(Nc1ccccc1)c1ccc2[nH]c(Nc3ccccc3Cl)nc2c1 [Example 9, 2-(2-Chloro-phenylamino)-1H-benzimidazole-5-carboxylic acid-phenylamide]	–	93
Cc1ccccc1Nc1nc2cc(C(=O)Nc3ccccc3)ccc2[nH]1 [Example 10, 2-(o-Tolyl-amino)-1H-benzimidazole-5-carboxylic acid-phenylamide]	–	98
Cc1cccc(Cl)c1Nc1nc2cc(C(=O)Nc3ccccc3)ccc2[nH]1 [Example 12, 2-(2-Chloro-6-methyl-phenylamino)-1H-benzimidazole-5-carboxylic acid-phenylamide]	–	99
Cc1cccc(C)c1Nc1nc2cc(C(=O)Nc3ccccc3)ccc2[nH]1 [Example 13, 2-(2,6-Dimethyl-phenylamino)-1H-benzimidazole-5-carboxylic acid-phenylamide]	–	100
O=C(Nc1ccccc1)c1ccc2[nH]c(Nc3c(F)cccc3Cl)nc2c1 [Example 19, 2-(2-Chloro-6-fluoro-phenylamino)-1H-benzimidazole-5-carboxylic acid-phenylamide]	–	91
Cn1c(Nc2c(Cl)cccc2Cl)nc2cc(C(=O)Nc3ccccc3)ccc21 [Example 20, 2-(2,6-Dichloro-phenylamino)-1-methyl-1H-benzimidazole-5-carboxylic acid phenylamide]	–	97
N#Cc1cccc(NC(=O)c2ccc3[nH]c(Nc4c(Cl)cccc4Cl)nc3c2)c1 [Example 22, 2-(2,6-Dichloro-phenylamino)-1H-benzimidazole-5-carboxylic acid (3-cyano-phenyl)-amide]	–	100
Cc1cc(C(=O)Nc2ccc(Br)cc2)cc2nc(Nc3c(Cl)cccc3Cl)[nH]c12 [Example 51, 2-(2,6-Dichloro-phenylamino)-7-methyl-1H-benzimidazole-5-carboxylic acid (4-bromo-phenyl)-amide]	–	89
Cc1cc(C(=O)Nc2ccc(Cl)c(F)c2)cc2nc(Nc3c(Cl)cccc3Cl)[nH]c12 [Example 52, 2-(2,6-Dichloro-phenylamino)-7-methyl-1H-benzimidazole-5-carboxylic acid (4-chloro-3-fluoro-phenyl)-amide]	–	100
O=C(Nc1ccc(Br)cc1)c1cc2nc(Nc3c(Cl)cccc3Cl)[nH]c2cc1Cl [Example 53, 2-(2,6-Dichloro-phenylamino)-6-chloro-1H-benzimidazole-5-carboxylic acid (4-bromo-phenyl)-amide]	–	100
O=C(Nc1ccc(Br)c(F)c1)c1cc2nc(Nc3c(Cl)cccc3Cl)[nH]c2cc1Cl [Example 54, 2-(2,6-Dichloro-phenylamino)-6-chloro-1H-benzimidazol-5-carboxylic acid (4-bromo-3-fluoro-phenyl)-amide]	–	96
O=C(Nc1ccc(Cl)c(F)c1)c1cc2nc(Nc3c(Cl)cccc3Cl)[nH]c2cc1Cl [Example 55, 2-(2,6-Dichloro-phenylamino)-6-chloro-1H-benzimidazol-5-carboxylic acid (4-chloro-3-fluoro-phenyl)-amide]	–	93
O=C(Nc1cccc(Cl)c1)c1cc2nc(Nc3c(Cl)cccc3Cl)[nH]c2cc1Cl [Example 56, 2-(2,6-Dichloro-phenylamino)-6-chloro-1H-benzimidazol-5-carboxylic acid (3-chloro-phenyl)-amide]	–	100
O=C(Nc1ccc(I)cc1)c1cc2nc(Nc3c(Cl)cccc3Cl)[nH]c2cc1Cl [Example 57, 2-(2,6-Dichloro-phenylamino)-6-chloro-1H-benzimidazol-5-carboxylic acid (4-iodo-phenyl)-amide]	–	96
O=C(NC1Cc2ccccc2C1)c1cc2nc(Nc3c(Cl)cccc3Cl)[nH]c2cc1Cl [Example 58, 2-(2,6-Dichloro-phenylamino)-6-chloro-1H-benzimidazol-5-carboxylic acid indan-2-yl-amide]	–	90
CC1(C)CCC(NC(=O)c2ccc3[nH]c(Nc4c(Cl)cccc4Cl)nc3c2)CC1 [Example 64, 2-(2,6-Dichloro-phenylamino)-1H-benzimidazole-5-carboxylic acid (4,4-dimethyl-cyclohexyl)-amide]	–	97
O=C(Nc1ccc(Br)cc1)c1ccc2[nH]c(Nc3c(Cl)cccc3Cl)nc2c1 [Example 66, 2-(2,6-Dichloro-phenylamino)-1H-benzimidazole-5-carboxylic acid (4-bromo-phenyl)-amide]	–	100
O=C(Nc1ccc(Cl)cn1)c1ccc2[nH]c(Nc3c(Cl)cccc3Cl)nc2c1 [Example 74, 2-(2,6-Dichloro-phenylamino)-1H-benzimidazole-5-carboxylic acid (5-chloro-pyridin-2-yl)-amide]	–	97
O=C(Nc1cc(Cl)ccn1)c1ccc2[nH]c(Nc3c(Cl)cccc3Cl)nc2c1 [Example 75, 2-(2,6-Dichloro-phenylamino)-1H-benzimidazole-5-carboxylic acid (4-chloro-pyridin-2-yl)-amide]	–	95
Cc1nc(NC(=O)c2ccc3[nH]c(Nc4c(Cl)cccc4Cl)nc3c2)ccc1Br [Example 76, 2-(2,6-Dichloro-phenylamino)-1H-benzimidazole-5-carboxylic acid (5-bromo-6-methyl-pyridin-2-yl)-amide]	–	97
Cc1nc(NC(=O)c2ccc3[nH]c(Nc4c(Cl)cccc4Cl)nc3c2)sc1C [Example 77, 2-(2,6-Dichloro-phenylamino)-1H-benzimidazole-5-carboxylic acid (4,5-dimethyl-thiazol-2-yl)-amide]	–	96
